Reference: patent US5204364A, “N-imidazolyl- and N-imidazolylmethyl-derivatives of substituted bicyclic compounds” (Farmitalia Carlo Erba, S.r.l., priority 1988, dated 1993)
Where two headings read alike, the source gives them in different places.

What was measured:
[1] = tested on: TxA2 synthase; assay: TxB2 synthesis (TxA2 synthase activity) in whole blood of normal rats during clotting, in vitro; type: cell-based, rat (Sprague Dawley); details: Rattus norvegicus, read-out: In vitro effect on TxB2 synthesis in normal rats, IC50
Protocol: The compounds of formula (I) were for example tested for their ability to inhibit TxA2 synthase activity (as reflected by TxB2 generated in whole blood during clotting) in vitro in the rat.
The effect of a representative group of compounds according to the present invention on TxB2 synthesis was evaluated in comparison with known products in whole blood of normal Sprague Dawley rats (Charles River Italy). Blood was withdrawn from the abdominal aorta of the animals under light ether anaesthesia. The blood was immediately divided in portions of 0.5 ml and distributed in glass tubes each containing a concentration of the test compound, or of the reference compounds.
Samples were then allowed to clot for 1 hour at 37° C., centrifuged at 3000 rpm for 10 min, serum collected and stored at -20° C. until assayed.

[2] = orientative acute toxicity, single oral administration; details: in vivo, fasted mice and rats, assessed on the seventh day
Protocol: The toxicity of the compounds of the invention is negligible, therefore they can be safely used in therapy. Mice and rats which had been deprived of food for nine hours were treated orally with single administrations of increasing doses of compounds of the invention, then housed and normally fed. The orientative acute toxicity (LD50) was assessed on the seventh day after the treatment and e.g. in the compound added as FCE 26572, was higher than 800 mg/kg.

[3] = whole blood, clotted 1 hour at 37° C., TxB2 by RIA, limits for p = 0.95

Compound	IC50 [1, 3] [nM]	also measured
O=C(O)c1ccc2c(c1)C=C(n1ccnc1)CC2 [FCE 22178, 5,6dihydro-7-(1H-imidazol-1-yl)-2-naphthalenecarboxylic acid, reference compound]	1000	–
CC(=O)Oc1ccccc1C(=O)O [ASA, Acetyl salicyclic acid, reference compound]	–	IC50 ([1]; 1 h): 31000 nM
CC1=C(Cn2ccnc2)CCc2ccc(C(=O)O)cc21 [FCE 26333, 5,6-dihydro-7-(1H-imidazol-1-ylmethyl)-8-methyl-2-naphthalenecarboxylic acid]	43	–
CC1=C(n2ccnc2)CCc2ccc(C(=O)O)cc21 [FCE 25672, 5,6-dihydro-7-(1H-imidazol-1-yl)-8-methyl-2-naphthalenecarboxylic acid]	290	–
C=C1c2cc(C(=O)O)ccc2CCC1n1ccnc1 (stereo not drawn) [FCE 26252, 5,6,7,8-tetrahydro-7-(1H-imidazol-1-yl)-8-methylene-2-naphthalenecarboxylic acid]	740	–
CC1=C(n2ccnc2)CCc2ccc(C(=O)O)cc21 [FCE 26572]	–	LD50 at 168 h [2]: > 800 mg/kg
